# Tests used:
# Assay type in all cases: in vivo
# [1] = test system: horseweed (Erigeron canadensis); assay: Test A postemergence application, visual injury rating 0-100; settings: Postemergence, 10 days; for Horseweed plant response rating: 1000 g ai/ha, 0 to 100 scale; for Horseweed plant response rating (0 to 100 scale): 0 is no effect, 100 is complete control
# Method in brief: (§1)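 Rating: visual, day 10, untreated plants as reference, 0 no effect to 100 full control. Plants were in loam-sand and were treated either preemergence via directed soil spray or postemergence at the one- to two-leaf stage.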
# [2] = test system: barnyardgrass (Echinochloa crus-galli); assay: as above; settings: Postemergence, 10 days; for Barnyardgrass plant response rating: 1000 g ai/ha, 0 to 100 scale; for Barnyardgrass plant response rating (0 to 100 scale): 0 is no effect, 100 is complete control
# Method in brief: as §1
# kochia (Bassia scoparia) [3] = assay: as above; settings: Postemergence, 10 days; for Kochia plant response rating: 1000 g ai/ha, 0 to 100 scale; for Kochia plant response rating (0 to 100 scale): 0 is no effect, 100 is complete control
# Method in brief: as §1
# [4] = test system: green foxtail (Setaria viridis); assay: as above; settings: Postemergence, 10 days; for Foxtail, Green plant response rating: 1000 g ai/ha, 0 to 100 scale; for Foxtail, Green plant response rating (0 to 100 scale): 0 is no effect, 100 is complete control
# Method in brief: as §1
# [5] = test system: galium (catchweed bedstraw, Galium aparine); assay: as above; settings: Postemergence, 10 days; for Galium plant response rating: 1000 g ai/ha, 0 to 100 scale; for Galium plant response rating (0 to 100 scale): 0 is no effect, 100 is complete control
# Method in brief: as §1
# [6] = test system: blackgrass (Alopecurus myosuroides); assay: as above; settings: Postemergence, 10 days; for Blackgrass plant response rating: 1000 g ai/ha, 0 to 100 scale; for Blackgrass plant response rating (0 to 100 scale): 0 is no effect, 100 is complete control
# Method in brief: as §1
# [7] = test system: barnyardgrass (Echinochloa crusgalli); assay: Test B flooded paddy test, visual plant response rating 0-100; settings: 250 g ai/ha, Flood, applied to paddy water, evaluated after 13 days
# Method in brief: (§2)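 Plants were grown to the 2-leaf stage, then pots were flooded to 3 cm above the soil and test compounds were applied directly into the paddy water. Water depth was held there throughout; after 13 days in a greenhouse, injury was scored visually against untreated controls.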
# rice (Oryza sativa) = assay: as above; settings: 250 g ai/ha, Flood, applied to paddy water, evaluated after 13 days
# Method in brief: as §2
# [8] = test system: ducksalad (Heteranthera limosa); assay: as above; settings: 250 g ai/ha, Flood, applied to paddy water, evaluated after 13 days
# Method in brief: as §2
# [9] = test system: sedge, umbrella (small-flower umbrella sedge, Cyperus difformis); assay: as above; settings: 250 g ai/ha, Flood, applied to paddy water, evaluated after 13 days
# Method in brief: as §2
# [10] = test system: ragweed (common ragweed, Ambrosia artemisiifolia); assay: Test A preemergence soil spray, visual injury rating 0-100; settings: 10 days, 0 = no effect, 100 = complete control
# Method in brief: as §1
# [11] = test system: ryegrass, Italian (italian ryegrass, Lolium multiflorum); assay: as above; settings: 10 days, 0 = no effect, 100 = complete control
# Method in brief: as §1
# [12] = test system: palmer (palmer amaranth, palmer pigweed, Amaranthus palmeri); assay: as above; settings: 1000 g ai/ha, 10 days, 0 = no effect, 100 = complete control
# Method in brief: as §1
# [13] = test system: barnyardgrass (Echinochloa crus-galli); assay: as above; settings: 10 days, 0 = no effect, 100 = complete control
# Method in brief: as §1
# kochia (Bassia scoparia) [14] = assay: as above; settings: 10 days, 0 = no effect, 100 = complete control
# Method in brief: as §1
# [15] = test system: green foxtail (Setaria viridis); assay: as above; settings: 10 days, 0 = no effect, 100 = complete control
# Method in brief: as §1
# [16] = test system: blackgrass (Alopecurus myosuroides); assay: as above; settings: 10 days, 0 = no effect, 100 = complete control
# Method in brief: as §1
# [17] = test system: ragweed (common ragweed, Ambrosia artemisiifolia); assay: Test A postemergence application, visual injury rating 0-100; settings: Postemergence, 10 days, 0 is no effect, 100 is complete control
# Method in brief: as §1
# [18] = test system: ryegrass, Italian (italian ryegrass, Lolium multiflorum); assay: as above; settings: Postemergence, 10 days, 0 is no effect, 100 is complete control
# Method in brief: as §1
# [19] = test system: palmer (palmer amaranth, palmer pigweed, Amaranthus palmeri); assay: as above; settings: Postemergence, 10 days, 0 is no effect, 100 is complete control
# Method in brief: as §1
# corn (Zea mays) [20] = assay: as above; settings: Postemergence, 10 days, 0 is no effect, 100 is complete control
# Method in brief: as §1
# [21] = test system: oat, wild (wild oat, Avena fatua); assay: as above; settings: Postemergence, 10 days, 0 is no effect, 100 is complete control
# Method in brief: as §1
# [22] = test system: wheat (Triticum aestivum); assay: as above; settings: Postemergence, 10 days, 0 is no effect, 100 is complete control
# Method in brief: as §1
# soybean (Glycine max) [23] = assay: as above; settings: Postemergence, 10 days, 0 is no effect, 100 is complete control
# Method in brief: as §1
# corn (Zea mays) [24] = assay: Test A preemergence soil spray, visual injury rating 0-100; settings: 10 days, 0 = no effect, 100 = complete control
# Method in brief: as §1
# [25] = test system: oat, wild (wild oat, Avena fatua); assay: as above; settings: 10 days, 0 = no effect, 100 = complete control
# Method in brief: as §1
# [26] = test system: wheat (Triticum aestivum); assay: as above; settings: 500 g ai/ha, 10 days, 0 = no effect, 100 = complete control
# Method in brief: as §1
# soybean (Glycine max) [27] = assay: as above; settings: 10 days, 0 = no effect, 100 = complete control
# Method in brief: as §1
smiles,measurement,setting,value
COC(=O)C1=CCC(NC(=O)C2(C)CN(c3cc(F)cc(F)c3)C(=O)N2)C1 (mixture of isomers) [Compound 181],Horseweed plant response rating,[1],10
same,Barnyardgrass plant response rating,[2],90
same,Kochia plant response rating,kochia (Bassia scoparia) [3],80
same,"Foxtail, Green plant response rating",[4],90
same,Galium plant response rating,[5],90
same,Blackgrass plant response rating,[6],90
same,"Plant response rating, Barnyardgrass (0 to 100 scale, 0 is no effect and 100 is complete control)",[7],10
same,"Plant response rating, Rice (0 to 100 scale, 0 is no effect and 100 is complete control)",rice (Oryza sativa),15
same,"Plant response rating, Ducksalad (0 to 100 scale, 0 is no effect and 100 is complete control)",[8],30
same,"Plant response rating, Sedge, Umbrella (0 to 100 scale, 0 is no effect and 100 is complete control)",[9],0
same,Ragweed plant response rating (0 to 100 scale),[10]; 1000 g ai/ha,0
same,"Ryegrass, Italian plant response rating (0 to 100 scale)",[11]; 1000 g ai/ha,0
same,"Amaranth, Palmer / Pigweed, Palmer plant response rating (0 to 100 scale)",[12],90
same,Barnyardgrass plant response rating (0 to 100 scale),[13]; 1000 g ai/ha,80
same,Kochia plant response rating (0 to 100 scale),kochia (Bassia scoparia) [14]; 1000 g ai/ha,90
same,"Foxtail, Green plant response rating (0 to 100 scale)",[15]; 1000 g ai/ha,90
same,Blackgrass plant response rating (0 to 100 scale),[16]; 1000 g ai/ha,80
"COC(=O)[C@H]1C[C@@H](NC(=O)C2(C)CN(c3cc(F)cc(F)c3)C(=O)O2)[C@H]2C[C@H]21 (stereo partly drawn) [Compound 176, methyl (1R,2S,4R,5S)-4-[[3-(3,5-difluorophenyl)-5-methyl-2-oxo-oxazolidine-5-carbonyl]amino]bicyclo[3.1.0]hexane-2-carboxylate]",Ragweed plant response rating (0 to 100 scale),[17]; 125 g ai/ha,70
same,Ragweed plant response rating (0 to 100 scale),[17]; 500 g ai/ha,80
same,"Ryegrass, Italian plant response rating (0 to 100 scale)",[18]; 125 g ai/ha,100
same,"Ryegrass, Italian plant response rating (0 to 100 scale)",[18]; 500 g ai/ha,100
same,"Amaranth, Palmer / Pigweed, Palmer plant response rating (0 to 100 scale)",[19]; 125 g ai/ha,80
same,"Amaranth, Palmer / Pigweed, Palmer plant response rating (0 to 100 scale)",[19]; 500 g ai/ha,90
same,Corn plant response rating (0 to 100 scale),corn (Zea mays) [20]; 125 g ai/ha,100
same,Corn plant response rating (0 to 100 scale),corn (Zea mays) [20]; 500 g ai/ha,100
same,Horseweed plant response rating (0 to 100 scale),[1]; 125 g ai/ha,0
same,Horseweed plant response rating (0 to 100 scale),[1]; 500 g ai/ha,30
same,"Oat, Wild plant response rating (0 to 100 scale)",[21]; 125 g ai/ha,90
same,"Oat, Wild plant response rating (0 to 100 scale)",[21]; 500 g ai/ha,90
same,Barnyardgrass plant response rating (0 to 100 scale),[2]; 125 g ai/ha,100
same,Barnyardgrass plant response rating (0 to 100 scale),[2]; 500 g ai/ha,100
same,Kochia plant response rating (0 to 100 scale),kochia (Bassia scoparia) [3]; 125 g ai/ha,90
same,Kochia plant response rating (0 to 100 scale),kochia (Bassia scoparia) [3]; 500 g ai/ha,90
same,"Foxtail, Green plant response rating (0 to 100 scale)",[4]; 125 g ai/ha,90
same,"Foxtail, Green plant response rating (0 to 100 scale)",[4]; 500 g ai/ha,90
same,Wheat plant response rating (0 to 100 scale),[22]; 125 g ai/ha,90
same,Wheat plant response rating (0 to 100 scale),[22]; 500 g ai/ha,90
same,Galium plant response rating (0 to 100 scale),[5]; 125 g ai/ha,90
same,Galium plant response rating (0 to 100 scale),[5]; 500 g ai/ha,100
same,Soybean plant response rating (0 to 100 scale),soybean (Glycine max) [23]; 125 g ai/ha,70
same,Soybean plant response rating (0 to 100 scale),soybean (Glycine max) [23]; 500 g ai/ha,70
same,Blackgrass plant response rating (0 to 100 scale),[6]; 125 g ai/ha,90
same,Blackgrass plant response rating (0 to 100 scale),[6]; 500 g ai/ha,90
same,"Plant response rating, Barnyardgrass (0 to 100 scale, 0 is no effect and 100 is complete control)",[7],55
same,"Plant response rating, Rice (0 to 100 scale, 0 is no effect and 100 is complete control)",rice (Oryza sativa),35
same,"Plant response rating, Ducksalad (0 to 100 scale, 0 is no effect and 100 is complete control)",[8],65
same,"Plant response rating, Sedge, Umbrella (0 to 100 scale, 0 is no effect and 100 is complete control)",[9],45
same,Ragweed plant response rating (0 to 100 scale),[10]; 125 g ai/ha,0
same,Ragweed plant response rating (0 to 100 scale),[10]; 500 g ai/ha,0
same,"Ryegrass, Italian plant response rating (0 to 100 scale)",[11]; 125 g ai/ha,100
same,"Ryegrass, Italian plant response rating (0 to 100 scale)",[11]; 500 g ai/ha,100
same,Corn plant response rating (0 to 100 scale),corn (Zea mays) [24]; 125 g ai/ha,70
same,Corn plant response rating (0 to 100 scale),corn (Zea mays) [24]; 500 g ai/ha,100
same,"Oat, Wild plant response rating (0 to 100 scale)",[25]; 125 g ai/ha,90
same,"Oat, Wild plant response rating (0 to 100 scale)",[25]; 500 g ai/ha,90
same,Barnyardgrass plant response rating (0 to 100 scale),[13]; 125 g ai/ha,100
same,Barnyardgrass plant response rating (0 to 100 scale),[13]; 500 g ai/ha,100
same,Kochia plant response rating (0 to 100 scale),kochia (Bassia scoparia) [14]; 125 g ai/ha,90
same,Kochia plant response rating (0 to 100 scale),kochia (Bassia scoparia) [14]; 500 g ai/ha,100
same,"Foxtail, Green plant response rating (0 to 100 scale)",[15]; 125 g ai/ha,90
same,"Foxtail, Green plant response rating (0 to 100 scale)",[15]; 500 g ai/ha,100
same,Wheat plant response rating (0 to 100 scale),[26],100
same,Soybean plant response rating (0 to 100 scale),soybean (Glycine max) [27]; 125 g ai/ha,70
same,Soybean plant response rating (0 to 100 scale),soybean (Glycine max) [27]; 500 g ai/ha,80
same,Blackgrass plant response rating (0 to 100 scale),[16]; 125 g ai/ha,90
same,Blackgrass plant response rating (0 to 100 scale),[16]; 500 g ai/ha,100
CC1(C(=O)NC2CC=C(C(=O)O)C2)CN(c2cc(F)cc(F)c2)C(=O)N1 (centres unmarked) [Compound 182],Horseweed plant response rating,[1],80
same,Barnyardgrass plant response rating,[2],90
same,Kochia plant response rating,kochia (Bassia scoparia) [3],80
same,"Foxtail, Green plant response rating",[4],90
same,Galium plant response rating,[5],90
same,Blackgrass plant response rating,[6],90
same,"Plant response rating, Barnyardgrass (0 to 100 scale, 0 is no effect and 100 is complete control)",[7],20
same,"Plant response rating, Rice (0 to 100 scale, 0 is no effect and 100 is complete control)",rice (Oryza sativa),15
same,"Plant response rating, Ducksalad (0 to 100 scale, 0 is no effect and 100 is complete control)",[8],60
same,"Plant response rating, Sedge, Umbrella (0 to 100 scale, 0 is no effect and 100 is complete control)",[9],70
same,Ragweed plant response rating (0 to 100 scale),[10]; 1000 g ai/ha,30
same,"Ryegrass, Italian plant response rating (0 to 100 scale)",[11]; 1000 g ai/ha,90
same,"Amaranth, Palmer / Pigweed, Palmer plant response rating (0 to 100 scale)",[12],90
same,Barnyardgrass plant response rating (0 to 100 scale),[13]; 1000 g ai/ha,80
same,Kochia plant response rating (0 to 100 scale),kochia (Bassia scoparia) [14]; 1000 g ai/ha,90
same,"Foxtail, Green plant response rating (0 to 100 scale)",[15]; 1000 g ai/ha,100
same,Blackgrass plant response rating (0 to 100 scale),[16]; 1000 g ai/ha,90

# Source: US20260285850A1, “SUBSTITUTED OXAZOLIDINONES AND IMIDAZOLINONES AS HERBICIDES” (FMC CORPORATION, priority 2023, published 2026)
